The values below come from PMC11327196, “A phase 1 study to assess the absolute bioavailability, mass balance, pharmacokinetics, metabolism, and excretion of [^14C]-mobocertinib, an oral inhibitor of EGFR exon 20 insertion mutations, in healthy participants” (Investigational New Drugs, 2024).

The nature of this series: Period 1 absolute bioavailability study: plasma PK after IV microdose of [14C]-mobocertinib. Format: in vivo, human. As for the experimental part: This was a two-period, open-label, single-dose phase 1 study (NCT03811834) conducted at one clinical site (Celerion, Lincoln, Nebraska, USA) in healthy male participants. The primary objective of Period 1 was to determine the absolute bioavailability of mobocertinib following a single oral dose of 160 mg mobocertinib as capsules and a single intravenous (IV) microdose of 50 µg (~ 2 µCi) [^14C]-mobocertinib. The primary objectives of Period 2 were to (1) assess the cumulative excretion of total radioactivity in urine and feces (mass balance); (2) assess the metabolite profile of mobocertinib in plasma, urine, and feces; and (3) characterize the PK of mobocertinib, AP32960, and AP32914 in plasma, whole blood, and urine, and total radioactivity concentration equivalents in plasma and whole blood following a single oral dose of 160 mg (~ 100 µCi) [^14C]-mobocertinib as an oral solution. A sample size of 6 healthy males was selected without statistical considerations and deemed adequate to meet the study objectives. Furthermore, the sample size was limited based on clinical considerations for human ADME studies and to limit exposure to radioactivity.
On Day 1 of Period 1, following an overnight fast of at least 10 h, participants received a single 160 mg dose of non-radiolabeled mobocertinib as capsules. At 3.75 h post oral dosing (i.e., 15 min before the median oral tmax of ~ 4 h), participants received a nominal dose of 50 µg (~ 2 µCi) [^14C]-mobocertinib as a 15-minute IV infusion. However, due to nonspecific binding of [^14C]-mobocertinib to the dosing syringe and tubing, actual doses administered ranged from 36.8 to 38.7 µg (1.47 to 1.55 µCi). Participants were required to stay in the clinic from Day − 1 through at least the 96-hour blood draw (Day 5) or until a discharge criterion was met (i.e., ≥ 80% of the total administered radioactive dose was recovered in urine and fecal samples or excretion of radioactivity in urine and feces combined had declined to ≤ 1% of the total administered dose per day for ≥ 2 consecutive intervals), up to a maximum of 7 days postdose (Day 8). Blood samples for the measurement of plasma mobocertinib, AP32960, and AP32914 concentrations were collected predose and at 0.5, 1, 2, 3, 4, 5, 6, 8, 12, 24, 36, 48, 72, and 96 h after oral administration. Additional blood samples to determine [^14C]-total radioactivity, [^14C]-mobocertinib, [^14C]-AP32960, and [^14C]-AP32914 in plasma were collected at 3.75 h after oral dosing (i.e., predose for [^14C] assessments), at the end of the IV infusion, and at 10, 20, and 30 min, and 1, 2, 4, 8, 20, 32, 44, 68, and 92 h after the end of infusion. […] Urine and feces were collected before oral dosing (− 48–0 h); urine was collected over 0–3.75 h, 3.75–12 h and 12–24 h after oral dosing; feces were collected from 0 to 3.75 h and 3.75–24 h after oral dosing; both urine and feces were then collected over 24-hour intervals until a discharge criterion was met, or up to Day 8 (168 h postdose).
Plasma, whole blood, and urine samples were assayed for mobocertinib, AP32960, and AP32914 concentrations using liquid chromatography-tandem mass spectrometry (Q2 Solutions, Ithaca, New York, USA). The analytical range for each analyte was 0.250 to 500 ng/mL in whole blood and plasma, and 1.00 to 1000 ng/mL in urine. […] Urine and fecal samples were assayed for total radioactivity following the IV dose of [^14C]-mobocertinib in Period 1, and whole blood, plasma, urine, and fecal samples were assayed for total radioactivity following the oral dose of [^14C]-mobocertinib in Period 2 using liquid scintillation counting (LSC; Celerion, Lincoln, Nebraska, USA; LLOQs: Period 1 urine: 0.115–0.118 ng eq/g, feces: 0.720–0.759 ng eq/g; Period 2 whole blood: 87.3–112 ng eq/g, plasma: 116–132 ng eq/mL, urine: 37.8–46.8 ng eq/g, feces: 110–336 ng eq/g across participants). […]

The mark [1] stands for this setting: Period 1, IV infusion 50 µg [14C]-mobocertinib, geometric mean (geometric CV%).
Setting [2] is: Period 1, IV infusion 50 µg [14C]-mobocertinib, normalized to a 160 mg dose, geometric mean (geometric CV%).

[^14C]-mobocertinib: the tmax (Period 1, 15-min IV infusion 50 µg (~2 µCi) [14C]-mobocertinib, median (range)) is listed as 0.26 (0.26–1.25) h. Also, under setting [1], the “CL/F (after IV administration, values represent CL)” value is listed as 55.9 (30.0) L/h; the “Vz/F (after IV administration, values represent Vz)” value was 1791 (45.3) L; the t1/2z is listed as 22.2 (41.3) h. For the same substance, under setting [2], the “AUC∞” value is recorded as 2864 (30.0) ng*h/mL and the Cmax was 624.9 (43.6) ng/mL.
